Measured values reported in ChEMBL document CHEMBL1142332, “N-(3-(phenylcarbamoyl)arylpyrimidine)-5-carboxamides as potent and selective inhibitors of Lck: structure, synthesis and SAR” (Bioorg Med Chem Lett, 2008).

Experiments:
[1] = target: Mitogen-activated protein kinase 14 (Homo sapiens, UniProt Q16539); assay: Inhibition of p38alpha
[2] = target: Tyrosine-protein kinase Lck (Homo sapiens, UniProt P06239); assay: Inhibition of Lck by HTRF assay
[3] = target: T1, Tyrosine-protein kinase JAK3 (Homo sapiens, UniProt P52333); assay: Inhibition of Jak3
T1 sequence (P52333 whole entry): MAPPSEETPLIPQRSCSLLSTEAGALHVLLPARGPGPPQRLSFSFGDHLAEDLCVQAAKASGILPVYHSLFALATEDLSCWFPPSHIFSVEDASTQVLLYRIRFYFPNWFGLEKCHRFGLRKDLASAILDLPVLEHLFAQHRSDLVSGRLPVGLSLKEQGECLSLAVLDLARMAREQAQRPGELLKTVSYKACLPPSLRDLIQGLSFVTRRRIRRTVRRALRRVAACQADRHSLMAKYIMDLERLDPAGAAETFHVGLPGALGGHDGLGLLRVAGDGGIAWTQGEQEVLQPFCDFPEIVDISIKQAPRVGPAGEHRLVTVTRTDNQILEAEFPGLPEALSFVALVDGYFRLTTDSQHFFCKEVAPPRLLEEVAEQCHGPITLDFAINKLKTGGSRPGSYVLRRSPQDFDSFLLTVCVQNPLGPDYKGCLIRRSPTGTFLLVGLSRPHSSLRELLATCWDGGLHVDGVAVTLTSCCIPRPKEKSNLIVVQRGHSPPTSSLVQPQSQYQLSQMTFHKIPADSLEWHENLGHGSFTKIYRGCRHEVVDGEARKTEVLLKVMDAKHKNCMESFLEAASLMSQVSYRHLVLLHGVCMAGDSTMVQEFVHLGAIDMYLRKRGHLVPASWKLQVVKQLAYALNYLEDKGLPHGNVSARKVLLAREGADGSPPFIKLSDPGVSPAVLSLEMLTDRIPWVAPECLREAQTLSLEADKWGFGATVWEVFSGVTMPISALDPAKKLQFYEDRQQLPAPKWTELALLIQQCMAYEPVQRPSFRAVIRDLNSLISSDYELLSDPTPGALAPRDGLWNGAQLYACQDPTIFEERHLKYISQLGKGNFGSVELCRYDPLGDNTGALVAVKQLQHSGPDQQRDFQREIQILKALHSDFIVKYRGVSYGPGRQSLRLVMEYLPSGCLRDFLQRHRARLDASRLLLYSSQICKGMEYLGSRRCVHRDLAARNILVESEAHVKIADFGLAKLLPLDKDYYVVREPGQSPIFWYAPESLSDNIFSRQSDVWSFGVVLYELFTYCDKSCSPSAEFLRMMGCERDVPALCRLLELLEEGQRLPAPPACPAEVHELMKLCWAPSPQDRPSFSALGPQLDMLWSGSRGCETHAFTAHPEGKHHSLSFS

[4] = target: Vascular endothelial growth factor receptor 2 (Homo sapiens, UniProt P35968); assay: Inhibition of KDR
Vascular endothelial growth factor receptor 2, sequence (P35968 whole entry): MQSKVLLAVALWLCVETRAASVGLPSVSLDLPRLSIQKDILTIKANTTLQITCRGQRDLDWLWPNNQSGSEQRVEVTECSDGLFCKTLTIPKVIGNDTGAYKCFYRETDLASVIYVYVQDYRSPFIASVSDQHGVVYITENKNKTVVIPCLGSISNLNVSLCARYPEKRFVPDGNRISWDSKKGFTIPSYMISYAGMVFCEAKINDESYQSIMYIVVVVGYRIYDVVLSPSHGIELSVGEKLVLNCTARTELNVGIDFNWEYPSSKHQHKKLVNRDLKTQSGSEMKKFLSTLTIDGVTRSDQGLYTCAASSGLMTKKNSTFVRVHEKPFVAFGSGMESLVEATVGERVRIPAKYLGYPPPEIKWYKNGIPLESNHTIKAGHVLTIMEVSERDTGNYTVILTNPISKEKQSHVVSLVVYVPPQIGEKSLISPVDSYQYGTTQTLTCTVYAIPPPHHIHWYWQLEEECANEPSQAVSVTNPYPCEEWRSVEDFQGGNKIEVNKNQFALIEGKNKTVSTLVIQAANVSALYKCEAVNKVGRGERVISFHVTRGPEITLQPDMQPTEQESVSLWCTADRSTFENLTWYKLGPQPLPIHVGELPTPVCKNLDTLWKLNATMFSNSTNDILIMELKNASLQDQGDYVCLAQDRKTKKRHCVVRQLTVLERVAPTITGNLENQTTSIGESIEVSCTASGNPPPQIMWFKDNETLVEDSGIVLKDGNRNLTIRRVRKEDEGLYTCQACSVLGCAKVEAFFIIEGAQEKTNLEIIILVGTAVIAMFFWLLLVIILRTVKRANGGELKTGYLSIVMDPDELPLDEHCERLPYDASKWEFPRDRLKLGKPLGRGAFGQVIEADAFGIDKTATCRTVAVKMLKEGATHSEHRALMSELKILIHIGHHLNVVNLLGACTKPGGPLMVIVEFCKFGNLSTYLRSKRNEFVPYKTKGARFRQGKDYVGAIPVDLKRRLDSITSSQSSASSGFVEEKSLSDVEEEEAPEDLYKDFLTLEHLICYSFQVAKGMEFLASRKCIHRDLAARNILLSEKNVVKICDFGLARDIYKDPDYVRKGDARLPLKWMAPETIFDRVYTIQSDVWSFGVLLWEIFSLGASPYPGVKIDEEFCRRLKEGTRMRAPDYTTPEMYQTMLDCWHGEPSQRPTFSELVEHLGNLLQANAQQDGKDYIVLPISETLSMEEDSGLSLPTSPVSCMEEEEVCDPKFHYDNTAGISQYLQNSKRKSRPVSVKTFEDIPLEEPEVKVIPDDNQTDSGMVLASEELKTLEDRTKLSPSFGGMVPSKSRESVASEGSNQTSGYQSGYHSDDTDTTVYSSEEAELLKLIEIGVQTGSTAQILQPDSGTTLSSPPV

[5] = tested on: T-cell; assay: Inhibition of T cell activation in human mixed lymphocyte reaction; type: functional, cell-based
[6] = target: Angiopoietin-1 receptor (Homo sapiens, UniProt Q02763); assay: Inhibition of Tie2
Angiopoietin-1 receptor, sequence (Q02763 whole entry): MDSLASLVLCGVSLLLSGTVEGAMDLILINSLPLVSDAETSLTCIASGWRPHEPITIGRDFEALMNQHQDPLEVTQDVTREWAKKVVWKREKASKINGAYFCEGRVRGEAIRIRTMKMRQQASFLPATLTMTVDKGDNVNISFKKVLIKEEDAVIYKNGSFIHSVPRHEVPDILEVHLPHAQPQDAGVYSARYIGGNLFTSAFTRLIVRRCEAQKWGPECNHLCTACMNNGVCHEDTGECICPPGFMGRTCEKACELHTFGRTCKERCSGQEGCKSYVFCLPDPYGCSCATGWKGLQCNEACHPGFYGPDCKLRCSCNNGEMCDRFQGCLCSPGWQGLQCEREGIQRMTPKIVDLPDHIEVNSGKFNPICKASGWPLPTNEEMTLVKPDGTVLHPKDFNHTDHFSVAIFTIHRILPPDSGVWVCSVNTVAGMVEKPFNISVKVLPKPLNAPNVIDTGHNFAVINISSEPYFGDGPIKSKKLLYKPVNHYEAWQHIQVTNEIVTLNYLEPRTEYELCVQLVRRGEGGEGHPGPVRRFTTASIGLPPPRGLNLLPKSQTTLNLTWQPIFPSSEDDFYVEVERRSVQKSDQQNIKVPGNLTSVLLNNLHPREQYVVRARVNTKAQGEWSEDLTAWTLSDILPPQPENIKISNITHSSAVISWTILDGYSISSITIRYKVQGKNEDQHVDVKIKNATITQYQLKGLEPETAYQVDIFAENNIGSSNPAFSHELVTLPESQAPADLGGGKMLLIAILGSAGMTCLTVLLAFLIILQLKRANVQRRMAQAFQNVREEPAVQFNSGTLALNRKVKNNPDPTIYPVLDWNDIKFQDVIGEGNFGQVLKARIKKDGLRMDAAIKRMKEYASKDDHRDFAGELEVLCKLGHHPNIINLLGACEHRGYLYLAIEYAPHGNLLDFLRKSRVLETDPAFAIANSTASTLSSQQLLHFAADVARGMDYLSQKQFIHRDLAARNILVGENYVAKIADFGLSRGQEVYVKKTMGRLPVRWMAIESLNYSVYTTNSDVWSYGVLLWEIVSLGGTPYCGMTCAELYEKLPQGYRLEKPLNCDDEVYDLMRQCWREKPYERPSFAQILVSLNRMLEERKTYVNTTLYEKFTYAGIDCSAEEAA

Tyrosine-protein kinase Lck, sequence (P06239 whole entry): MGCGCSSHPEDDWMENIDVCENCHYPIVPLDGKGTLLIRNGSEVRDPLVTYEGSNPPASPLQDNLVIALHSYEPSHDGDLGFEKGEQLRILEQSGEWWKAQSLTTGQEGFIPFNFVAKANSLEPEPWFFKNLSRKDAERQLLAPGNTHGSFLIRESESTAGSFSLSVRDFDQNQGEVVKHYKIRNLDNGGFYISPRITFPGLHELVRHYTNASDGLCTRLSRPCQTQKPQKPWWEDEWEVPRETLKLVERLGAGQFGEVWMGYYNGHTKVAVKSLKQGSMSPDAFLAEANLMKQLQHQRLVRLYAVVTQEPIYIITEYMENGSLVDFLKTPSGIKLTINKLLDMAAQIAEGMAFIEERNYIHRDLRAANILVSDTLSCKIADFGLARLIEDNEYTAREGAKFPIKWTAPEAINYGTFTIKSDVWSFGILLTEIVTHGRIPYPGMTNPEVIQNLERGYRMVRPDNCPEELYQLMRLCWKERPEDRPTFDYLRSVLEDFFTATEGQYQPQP
Mitogen-activated protein kinase 14, sequence (Q16539 whole entry): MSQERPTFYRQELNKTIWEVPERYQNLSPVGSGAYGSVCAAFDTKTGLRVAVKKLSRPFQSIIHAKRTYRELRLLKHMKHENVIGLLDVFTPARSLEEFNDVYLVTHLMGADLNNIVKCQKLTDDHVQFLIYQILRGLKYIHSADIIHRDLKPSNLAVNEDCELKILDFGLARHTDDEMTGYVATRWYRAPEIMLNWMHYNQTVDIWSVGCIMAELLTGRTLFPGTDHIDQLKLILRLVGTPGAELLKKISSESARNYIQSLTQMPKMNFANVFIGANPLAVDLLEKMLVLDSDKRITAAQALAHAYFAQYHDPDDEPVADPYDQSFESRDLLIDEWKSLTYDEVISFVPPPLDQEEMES

Compound | IC50 [1] [nM] | IC50 [2] [nM] | IC50 [3] [nM] | IC50 [4] [nM] | IC50 [5] [nM] | IC50 [6] [nM]
CNc1ncc(C(=O)Nc2cc(C(=O)Nc3cccc(C(F)(F)F)c3F)ccc2C)c(OC)n1 | 254 | 7 | > 25000 | > 25000 | > 10000 | > 25000
CNc1ncc(C(=O)Nc2cc(C(=O)Nc3cccc(C(F)(F)F)c3C)ccc2C)c(OC)n1 | > 10000 | 44 | > 25000 | > 25000 | > 10000 | > 25000
CNc1ncc(C(=O)Nc2cc(C(=O)Nc3cccc(C(F)(F)F)c3)ccc2C)c(Oc2ccccc2)n1 | – | 25 | > 25000 | > 25000 | > 10000 | > 25000
COc1nc(NCCCN2CCN(C)CC2)ncc1C(=O)Nc1cc(C(=O)Nc2cccc(C(F)(F)F)c2C)ccc1C | – | 19 | > 25000 | > 25000 | 2710 | > 25000
COc1nc(NCCN2CCOCC2)ncc1C(=O)Nc1cc(C(=O)Nc2cccc(C(F)(F)F)c2)ccc1C | – | 22 | > 25000 | 2030 | 4920 | > 25000
COc1nc(NCCCCN(C)C)ncc1C(=O)Nc1cc(C(=O)Nc2cccc(C(F)(F)F)c2C)ccc1C | – | 45 | > 25000 | > 25000 | – | > 25000
CNc1ncc(C(=O)Nc2cc(C(=O)Nc3cccc(C(F)(F)F)c3)ccc2C)c(OC)n1 | 2720 | 53 | > 25000 | 8330 | > 10000 | > 25000

Further lines, results first:

IC50 [1] [nM] | IC50 [2] [nM] | IC50 [3] [nM] | IC50 [4] [nM] | IC50 [5] [nM] | IC50 [6] [nM] | Compound
– | 41 | > 25000 | > 25000 | > 10000 | > 25000 | Cc1ccc(C(=O)Nc2cccc(C(F)(F)F)c2)cc1NC(=O)c1cnc(NCCN2CCOCC2)nc1Oc1ccccc1
– | 101 | > 25000 | > 25000 | – | > 25000 | COc1nc(NC2CCN(C)CC2)ncc1C(=O)Nc1cc(C(=O)Nc2cccc(C(F)(F)F)c2)ccc1C
2.4 | 84 | > 25000 | 6680 | – | > 25000 | CNc1ncc(C(=O)Nc2cc(C(=O)Nc3cccc(C(F)(F)F)c3F)ccc2C)c(NC)n1
856 | 0.6 | 334 | 255 | 107 | 3440 | COc1nc(Nc2ccc(N3CCN(C)CC3)cc2)ncc1C(=O)Nc1cc(C(=O)Nc2cccc(C(F)(F)F)c2F)ccc1C
– | – | – | – | – | 2 | Cc1ccc(C(=O)Nc2cccc(C(F)(F)F)c2)cc1-c1ccc2nc(N)ncc2c1
